Reference: patent US4166852A, “Piperazino-pyrimidines and their use as spasmolytic agents” (priority 1974, dated 1979)
In brackets after ≈: the same amount, converted by molar mass. Structures can show the parent of a compound that is named as a salt. Where two headings read alike, the source gives them in different places.

Columns and labels:
[1] = acute toxicity, LD 50, CD 1 mice; format: in vivo; details: mouse, in vivo
From the text: The acute toxicities of the compounds according to the invention have been determined on CD 1 (Charles RIVER) mice by intravenous and oral methods. The LD 50 of each compound has been calculated by the cumulative method of J. J. Reed and H. Muench, (Amer. J. Hyg., 1938, 27, 493).

dogs = experiment: anti-emetic activity, apomorphine vomiting test on dogs; format: in vivo; details: Canis lupus familiaris, po, dogs, orally, apomorphine; read-out: Anti-emetic activity on dogs ED 50
From the text: The anti-emetic properties of the compounds according to the invention have been shown by oral administration of apomorphine to dogs in the vomiting test according to G. Chen and C. J. Ensor, Pharmacol. exp. Therap., 98, 24 (1950).

mice = experiment: analgesic activity, painful abdominal torsions test with phenylbenzoquinone; format: in vivo, CD 1 (Charles RIVER) mice; details: Mus musculus, po; mice, orally; read-out: Phenylbenzoquinone test on mice AD 50
From the text: The analgesic properties of the products according to the invention have been shown with CD 1 (Charles RIVER) mice in the painful abdominal torsions test with phenylbenzoquinone according to the technique of E. Siegmund, R. Cadmus and Go.Lu--Proc. Soc. Exp. Biol. Med., 95, 729, (1957).

[2] = test system: isolated duodenum of the rabbit (acetylcholine); experiment: spasmolytic effect on isolated duodenum, acetylcholine spasm; format: cell-based; details: Oryctolagus cuniculus, read-out: Spasmolytic effects EC 50 with respect to acetylcholine
From the text: (§1) Ges. Physiol., 102, 123, (1904) with respect to the spasms of the isolated duodenum of rabbits caused either by acetylchlorine for the spasmolytic nemotropes or by barium chloride for the spasmolytic musculotropes.

[3] = test system: isolated duodenum of the rabbit (barium chloride); experiment: spasmolytic effect on isolated duodenum, barium chloride spasm; format: cell-based; details: Oryctolagus cuniculus, read-out: Spasmolytic effects EC 50 with respect to barium chloride
From the text: as §1

head twitch = experiment: anti-serotonine activity, head twitch; format: in vivo, CD 1 (Charles RIVER) mice; details: Mus musculus, po; mice, orally; read-out: "Head-twitch" AD 50
From the text: The anti-serotonine activities of the compounds according to the invention have been shown by oral administration to the CD (Charles RIVER) rats using the technique of the serotonine plantar oedema (W. Theobald and R. Domenjoz--Arzneimittel Forsch, 8, 18, 1958 and with the CD 1 (Charles RIVER) mice using the technique known as "head twitch" according to S. J. Corne, R. W. Pickering and B. T. Warner, Brit. J. Pharmacol., 20, 106, (1963). The anti-serotonine activity has also been determined on the one hand on the tricoloured guinea-pig, given intravenously, according to a method derived from H. Konzet and R. Rossler, Arch. exp. Pathol, Pharmakol., 195, 71, (1940) and on the other hand in vitro with respect to the serotonine spasm of the isolated uterus of the rat according to the technique of A. Fanchamps, W. Doepfener, H. Weidman and A. Cerletti, Schw. Med. Worsch, 90, 1940, (1960).

[4] = intravenous, read-out: Acute toxicity for mice LD 50, intravenous
[5] = oral, read-out: Acute toxicity for mice LD 50, orally

Row | Compound | LD50 [1, 4] [mg/kg] | LD50 [1, 5] [mg/kg] | ED50 (dogs) [mg/kg] | ED50 (mice) [mg/kg] | EC50 [2] [µg/mL] | EC50 [3] [µg/mL] | ED50 (head twitch) [mg/kg]
1 | CSc1c(Cl)nc(NC(C)C)nc1N1CCN(C)CC1 [Example 2, 2-Isopropylamino-4-N-methyl-piperazino-6-chloro-5-methylthio-pyrimidine] | 79 | ~525 | 0.12 | 65 | 5 (≈ 15.8 µM) | 1.2 (≈ 3.8 µM) | 
2 | CSc1c(Cl)nc(NC(C)(C)C)nc1N1CCN(C)CC1 [Example 3, 2-t-butylamino-4-N-methylpiperazino-5-methylthio-6-chloro-pyrimidine] | 67 | ~600 |  |  | 2.5 (≈ 7.58 µM) | 0.5 (≈ 1.52 µM) | 300
3 | CNc1nc(Cl)c(SC)c(N2CCN(c3ccccc3)CC2)n1 [Example 7, 4-N-phenylpiperazino-2-methylamino-6-chloro-5-methylthio-pyrimidine] |  |  |  |  |  |  | 400
4 | CNc1nc(Cl)c(SC)c(N2CCN(CCO)CC2)n1 [Example 8, 2-Methylamino-4-N-(β-hydroxyethyl)-piperazino-6-chloro-5-methylthio-pyrimidine] | 124 | ~525 | 0.25 |  | 5 (≈ 15.7 µM) | 1.3 (≈ 4.09 µM) | 
5 | CSc1c(Cl)nc(N2CCN(C)CC2)nc1N1CCN(C)CC1 [Example 9, Bis-2,4-(N-methylpiperazino)-6-chloro-5-methylthio-pyrimidine hydrochloride] | 83 | ~675 |  | 150 | > 10 | 3.6 | 300
6 | CSc1c(Cl)nc(N2CCCCC2)nc1N1CCN(C)CC1 [Example 11, 2-Piperidino-4-methylpiperazino-5-methylthio-6-chloro-pyrimidine hydrochloride] | 115 | ~525 |  |  | 2.5 | 2.2 | 
7 | CSc1c(Cl)nc(N(C)c2ccccc2)nc1N1CCN(C)CC1 [Example 12, 2-(N-methyl-N-phenyl)amino-4-N-methylpiperazino-5-methylthio-6-chloro-pyrimidine hydrochloride] | 113 | ~525 |  | 100 | 3 | 2.2 | 
8 | CCN(CC)c1nc(Cl)c(SC)c(N2CCN(C)CC2)n1 [Example 15, 2-N-diethylamino-4-N-methylpiperazino-5-methylthio-6-chloro-pyrimidine dihydrobromide] | 123 | ~600 |  | 300 | 5 | 4 | 
9 | CCCOc1nc(NC)nc(N2CCN(C)CC2)c1SC [Example 18, 2-Methylamino-4-N-methylpiperazino-5-methylthio-6-propoxy-pyrimidine hydrochloride] | 63 | ~525 | 3.9 |  | > 5 | 2.1 | 
